How the values were obtained:
[1] = system: Tg(fabp10a:DsRed) zebrafish larvae; assay: Hepatotoxicity by size analysis of fluorescent 2D liver images (ImageJ); type: in vivo, Zebrafish (Danio rerio); settings: for Hepatotoxicity detected: Liver size: 6 dpf, vs vehicle control; for change in liver size: any of the administration routes, vs non-treated animals; on Hepatotoxicity detected: Liver size: key: Bold S: statistically significant difference; NS: no statistically significant difference
Method: Next, the 2D images obtained in the previous section were used to analyze the size of the fluorescent livers by ImageJ software. […].
(§1) At 6 dpf treated larvae were anesthetized by 0.5 mM tricaine in a 6 well-plate (Falcon®) and arranged so that they were lying on their right sides with their heads facing left. This enabled us to view the left lateral side of the larvae and the larger lobe of the liver that was scored in a blinded manner under a fluorescence microscope (Leica MZ10F-Dsred channel, 40× magnification, Leica Microsystems, Wetzlar, Germany). Livers were considered abnormal if their typical globular structure underwent gross morphological changes. Images of the livers (including a scale bar) were imported to ImageJ software (National Institutes of Health, Bethesda, MD, USA) for determining the liver size. To that end, the picture was set to scale (functions: analyze, set scale), the liver area extracted (functions: split channel, threshold) and the area calculated (function: analyze particles, settings: size = 0−infinity, circularity = 0.00−1.00).

[2] = system: Tg(fabp10a:DsRed) zebrafish larvae; assay: Hepatotoxicity by visual analysis of liver morphology using fluorescence microscopy; type: in vivo, Zebrafish (Danio rerio); settings: 6 dpf; for Hepatotoxicity detected: Morphology: vs vehicle control; on Hepatotoxicity detected: Morphology: key: Bold S: statistically significant difference; NS: no statistically significant difference
Method: We observed a range of abnormal liver phenotypes including reduced and enlarged livers (Figure 2). […].
The results are expressed as the percentage of larvae having normal or abnormal liver morphology.
as §1

[3] = system: Tg(fabp10a:DsRed) zebrafish larvae; assay: Lethality in zebrafish larvae: maximum non-toxic drug concentration/dose (MC/MD); type: in vivo, Zebrafish (Danio rerio); settings: for MC: maximum non-toxic drug concentration: immersion 3-6 dpf, less than 10% larval death at 6 dpf, or highest soluble concentration; for lethality (larval death): immersion, yolk and pericardial injection, up to highest soluble concentration/dose, 6 dpf; for MD: maximum non-toxic drug dose: less than 10% larval death at 6 dpf, or highest dose injectable without precipitation
Excerpt: The results are expressed as percentage of dead larvae relative to the total larvae (mean ± SD).

[4] = Pharmacokinetics in zebrafish larvae (larval extracts, UHPLC-UV); type: in vivo, Zebrafish (Danio rerio); settings: 0-24 h post treatment; for course of larval concentration after injection: yolk and pericardial injection at MD
Method: At given time points (0, 2, 6, 12 and 24 h), treated larvae were collected and transferred to 1.5 mL Eppendorf® tubes pre-filled with acid washed glass beads (diameter: 710–1180 µm, Sigma-Aldrich) and 270 µL of extraction medium (1:2 water:methanol, each containing 0.1% formic acid) was added (10 larvae per Eppendorf® tube). Samples were centrifuged for 15 s at 14,100× g (Eppendorf Mini Spin Plus, Hamburg, Germany) to insure high homogenization efficiency. Subsequently, the samples were homogenized with ultrasonication (Diagenode Bioruptor Plus, Seraing, Belgium) at +4 °C and high energy input setting to ensure the highest possible disruption of the cells. The overall treatment time was 15 min spread over 30 cycles of 30 s treatment followed by pauses of 30 s in-between. Six samples were homogenized during each treatment cycle. Subsequently, treated samples were centrifuged at 14,100× g for 15 min and 200 µL of supernatant was transferred to an empty Eppendorf tube (1.5 mL) and stored on ice until all samples were processed. All samples were then placed into a vacuum oven (Model 1410, Sheldon Manufacturing Inc., Cornelius, OR, USA) and evaporated until dry at +45 °C during 45 min. The samples were then reconstituted with a mobile phase-like solution (6% acetonitrile in water), vortexed for 5 s, resuspended at least three times with a micropipette and sonicated (Branson 3510, Danbury, CT, USA) for 15 min. Finally, samples were transferred into amber glass vials (Supelco, Bellefonte, PA, USA) with 250 µL glass inserts (Supelco) for further analysis on UHPLC-UV.
An Agilent 1290 UHPLC system (Agilent, Waldbronn, Germany) consisting of an autosampler, quaternary pump, degasser and DAD-detector (diode array detector) was used for all uptake measurements. […] All calculations concerning the evaluation of recorded data were made in MS Excel (Microsoft Corporation, Seattle, WA, USA). […]
The larval amount of hepatotoxicant (mg/kg) was calculated assuming the weight of a 3 or 4 dpf Tg(fabp10a:DsRed) zebrafish larva to be 0.25 mg.

[5] = system: Tg(fabp10a:DsRed) zebrafish larvae; assay: Hepatotoxicity by quantification of DsRed-labeled hepatocytes using cell imaging counting (CIC); settings: for change in amount of recovered hepatocytes: any of the administration routes, vs non-treated animals; for Hepatotoxicity detected: number of Hepatocytes (CIC): 6 dpf, vs vehicle control
Method: We then used CIC and quantified ex vivo DsRed-labeled hepatocytes after dispase-digestion of hepatotoxicant-exposed larvae. […] Analysis was performed after three days of treatment (immersion) or three days after treatment (injection), at 6 dpf. A total of 10 and 12 larvae were used individually per condition for immersion and injections, respectively. The experiment was performed in triplicate and data were pooled. […] Means ± SD of the number of hepatocytes per larva are shown.
Compounds tested were dissolved in DMSO (stock solution) and then further diluted in Danieau’s solution with a final concentration of 1% DMSO or diluted with 0.9% NaCl solution (1:1 ratio) to obtain a working solution for immersion and yolk/pericardial injections, respectively. At 3 dpf, hatched Tg(fabp10a:DsRed) larvae were transferred to 24-well plates (Falcon®, Corning, Lasne, Belgium) with each well containing 10 larvae in 1 mL Danieau’s solution and the dissolved drug or the vehicle control for immersion. For yolk injections, and pericardial injections into the bloodstream via the common cardinal veins, 12 larvae were used for each condition, and each larva was injected with 1 nL of solution at 3 dpf.
In order to digest the larvae and separate hepatocytes from the liver, larvae were transferred to 96 well-plates (Falcon®, Corning, Lasne, Belgium) with one larva per well and incubated with 200 µL 2.5 mg dispase/mL DPBS for 4 h. […] The hepatocytes were dispersed by pipetting up and down 20 times with a 1 mL automatic pipette. After digestion, hepatocytes were positioned at the bottom of the well by centrifugation at 200× g (Jouan CR412 centrifuge, Jouan, Saint-Herblain, France) for 15 min.
Fluorescent hepatocytes present in the wells were imaged and counted on an IN Cell Analyzer 2000 using software IN Cell Investigator Developer Toolbox (GE Healthcare, Machelen, Belgium), with a 2×/0.1 NA lens, DsRed fluorescence channel, a 0.1-s exposure time, and the intensity segmentation (172-4095) set to ensure hepatocytes were recognized selectively.
Differences between drug-treated groups and control vehicle control (VHC) regarding numbers of hepatocytes and liver sizes were analyzed for statistical significance using an ANOVA test. Regarding the liver morphology, Fisher’s exact test was used for the analysis. p < 0.05 was considered statistically significant.

[6] = immersion, MC and lower concentrations
[7] = all three administration routes, MC/MD and dilutions

Row | Compound | hepatotoxicity by liver size [1, 6] | Hepatotoxicity detected: Liver size ([1]; immersion, MC) | Hepatotoxicity detected: Morphology ([2]; immersion, MC) | Hepatotoxicity detected: Morphology ([2]; yolk injection, MD) | MC: maximum non-toxic drug concentration [3] | lethality (larval death) [3] | MD: maximum non-toxic drug dose ([3]; pericardial injection at 3 dpf) | MD: maximum non-toxic drug dose ([3]; yolk injection at 3 dpf) | course of larval concentration after injection [4] | change in liver size [1] | abnormal liver morphology [2, 7] | change in amount of recovered hepatocytes [5] | also measured
1 | CC(=O)Nc1ccc(O)cc1 [Paracetamol] | hepatotoxic only at their MC | S | S | S | 7500 µM | caused larval death in several of the conditions tested | 604 ^1 mg/kg | 604 ^1 mg/kg | fully excreted or metabolized after 24 h | – | – | – | hepatotoxicity by liver size ([1]; injected (yolk or pericardial)): exhibited an effect at its MD after yolk administration; Hepatotoxicity detected: Liver size ([1]; yolk injection, MD): S; Hepatotoxicity detected: Morphology ([2]; immersion, ½ MC): S; abnormal liver morphology ([2]; pericardial injections): no significant toxic effects; Hepatotoxicity detected: Morphology ([2]; yolk injection, ½ MD): S; half-life ([4]; Tg(fabp10a:DsRed), zebrafish, in vivo, after both yolk and pericardial injections (604 mg/kg), read-out: half-life of larval concentration): 6 to 8 h
2 | C[C@@H]1O[C@@H](OC[C@H]2O[C@@H](Oc3c(-c4ccc(O)c(O)c4)oc4cc(O)cc(O)c4c3=O)[C@H](O)[C@@H](O)[C@@H]2O)[C@H](O)[C@H](O)[C@H]1O [Rutin] | – | – | – | – | 200 ^1 µM | did not induce lethality | 150 ^1 mg/kg | 150 ^1 mg/kg | – | did not induce any change in liver size | did not induce abnormal liver morphology | did not induce any change in the amount of recovered hepatocytes | –
3 | OC[C@H]1O[C@@](CO)(O[C@H]2O[C@H](CO)[C@@H](O)[C@H](O)[C@H]2O)[C@@H](O)[C@@H]1O [Sucrose] | – | – | – | – | 8000 ^1 µM | did not induce lethality | 548 ^1 mg/kg | 548 ^1 mg/kg | – | did not induce any change in liver size | did not induce abnormal liver morphology | did not induce any change in the amount of recovered hepatocytes | –
4 | CN(C)[C@@H]1C(O)=C(C(N)=O)C(=O)[C@@]2(O)C(O)=C3C(=O)c4c(O)cccc4[C@@](C)(O)[C@H]3C[C@@H]12 [Tetracycline] | hepatotoxic only at their MC | S | S | S | – | – | 384 ^1 mg/kg | 192 mg/kg | remained nearly constant | – | induced abnormal liver morphology in a dose-dependent manner | – | Hepatotoxicity detected: Morphology ([2]; pericardial injection, MD): S; Hepatotoxicity detected: Morphology ([2]; pericardial injection, ½ MD): S; Hepatotoxicity detected: number of Hepatocytes (CIC) ([5]; immersion, MC): S; hepatotoxicity by CIC hepatocyte count ([5]; immersion, three concentrations): hepatotoxic effects induced by all three tetracycline concentrations; Hepatotoxicity detected: number of Hepatocytes (CIC) ([5]; immersion, ¼ MC): S; Hepatotoxicity detected: number of Hepatocytes (CIC) ([5]; immersion, ½ MC): S; hepatotoxicity by CIC hepatocyte count ([5]; injected doses (yolk or pericardial)): showed no effects

— paper PMC5343891, “Cell Imaging Counting as a Novel Ex Vivo Approach for Investigating Drug-Induced Hepatotoxicity in Zebrafish Larvae” (International Journal of Molecular Sciences, 2017)
